Numbered stars: 1 amine (or outer) side, 2 acyl side, 3 side chain; on linkers, the order of the positions; unused ones are H or OH. Square brackets hold non-standard residues; d marks the D form. Side chains are listed from the residue outwards. Peptide text beside a SMILES is read from it. * marks the point of attachment. γGlu = O=C(O)[C@H](CCC(=O)[*:2])N[*:1]; Palmitoyl = CCCCCCCCCCCCCCCC(=O)*
Key:
Test in all cases: cAMP induction, firefly luciferase reporter assay in HEK293 cells co-transfected with receptor
Format in all cases: cell-based
glucagon receptor = target: T1, glucagon receptor (Homo sapiens, UniProt P47871)
T1 construct: expressed in transfected cells; host or cells: HEK293
T1 sequence (P47871 26-477): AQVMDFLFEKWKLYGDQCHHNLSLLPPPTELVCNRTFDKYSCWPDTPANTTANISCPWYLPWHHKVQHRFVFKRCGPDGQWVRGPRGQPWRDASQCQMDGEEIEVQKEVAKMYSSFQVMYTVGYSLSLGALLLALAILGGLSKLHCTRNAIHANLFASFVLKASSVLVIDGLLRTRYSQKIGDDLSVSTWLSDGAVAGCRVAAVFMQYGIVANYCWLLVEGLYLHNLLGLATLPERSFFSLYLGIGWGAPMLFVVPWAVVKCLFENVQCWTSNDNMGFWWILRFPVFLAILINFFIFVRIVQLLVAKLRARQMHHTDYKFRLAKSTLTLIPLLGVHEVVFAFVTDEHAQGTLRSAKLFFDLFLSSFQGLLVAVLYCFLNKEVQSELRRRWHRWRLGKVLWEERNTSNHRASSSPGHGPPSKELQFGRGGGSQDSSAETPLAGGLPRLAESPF
Description: (§1) The ability of glucagon analogs to induce cAMP was measured in a firefly luciferase-based reporter assay. […] At the end of the incubation 100 microliters of LucLite luminescence substrate reagent (Perkin-Elmer, Wellesley, Mass.) were added to each well. […] Effective 50% concentrations were calculated by using Origin software (OriginLab, Northampton, Mass.

GIP receptor = target: T2, GIP receptor (Homo sapiens, UniProt P48546)
T2 construct: expressed in transfected cells; host or cells: HEK293
T2 sequence (P48546 22-466): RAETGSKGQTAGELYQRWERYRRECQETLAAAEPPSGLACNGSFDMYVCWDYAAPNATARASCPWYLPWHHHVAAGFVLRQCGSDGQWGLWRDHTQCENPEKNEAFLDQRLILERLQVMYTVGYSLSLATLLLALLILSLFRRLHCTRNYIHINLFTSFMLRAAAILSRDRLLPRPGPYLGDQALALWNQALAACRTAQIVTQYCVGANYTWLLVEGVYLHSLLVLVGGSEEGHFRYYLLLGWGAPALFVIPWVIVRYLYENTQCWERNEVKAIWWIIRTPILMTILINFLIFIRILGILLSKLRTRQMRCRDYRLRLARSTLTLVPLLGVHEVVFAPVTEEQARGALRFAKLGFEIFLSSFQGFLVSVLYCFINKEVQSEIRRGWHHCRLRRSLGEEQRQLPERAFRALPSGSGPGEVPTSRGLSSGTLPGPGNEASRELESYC
Description: as §1

GLP-1 receptor = target: T3, GLP-1 receptor (Homo sapiens, UniProt P43220)
T3 construct: expressed in transfected cells; host or cells: HEK293
T3 sequence (P43220 24-463): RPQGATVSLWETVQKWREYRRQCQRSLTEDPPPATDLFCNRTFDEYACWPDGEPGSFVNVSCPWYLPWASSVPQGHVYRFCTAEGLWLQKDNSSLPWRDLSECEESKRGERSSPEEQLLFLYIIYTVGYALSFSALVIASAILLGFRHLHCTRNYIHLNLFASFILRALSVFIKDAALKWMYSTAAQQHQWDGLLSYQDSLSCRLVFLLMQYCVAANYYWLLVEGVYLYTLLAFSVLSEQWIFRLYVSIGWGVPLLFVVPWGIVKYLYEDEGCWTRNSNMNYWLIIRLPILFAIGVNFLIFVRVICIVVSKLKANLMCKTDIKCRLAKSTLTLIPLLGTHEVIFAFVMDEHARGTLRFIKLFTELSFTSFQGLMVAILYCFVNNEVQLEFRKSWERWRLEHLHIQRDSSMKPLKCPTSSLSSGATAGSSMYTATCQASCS
Description: as §1

[1] = Table 1, analogs of SEQ ID NO: 37
[2] = Table 2, analogs of SEQ ID NO: 10

CCCCCCCCCCCCCCCC(=O)N[C@@H](CCC(=O)NCCCC[C@H](NC(=O)[C@H](CC(=O)O)NC(=O)[C@H](CO)NC(=O)[C@@H](NC(=O)[C@H](Cc1ccccc1)NC(=O)[C@@H](NC(=O)CNC(=O)[C@H](CCC(N)=O)NC(=O)CNC(=O)[C@H](N)Cc1c[nH]cn1)[C@@H](C)O)[C@@H](C)O)C(=O)N[C@@H](CO)C(=O)N[C@@H](CCCCN)C(=O)N[C@@H](Cc1ccc(O)cc1)C(=O)N[C@@H](CC(C)C)C(=O)N[C@@H](CC(=O)O)C(=O)N[C@@H](CCC(=O)O)C(=O)N[C@@H](CCCNC(=N)N)C(=O)N[C@@H](C)C(=O)N[C@@H](C)C(=O)N[C@@H](CCC(N)=O)C(=O)N[C@@H](CC(=O)O)C(=O)N[C@@H](Cc1ccccc1)C(=O)N[C@H](C(=O)N[C@@H](CCC(N)=O)C(=O)N[C@@H](Cc1c[nH]c2ccccc12)C(=O)N[C@@H](CC(C)C)C(=O)N[C@@H](CC(C)C)C(=O)N[C@@H](CCC(=O)O)C(=O)NCC(=O)NCC(=O)N1CCC[C@H]1C(=O)N[C@@H](CO)C(=O)N[C@@H](CO)C(=O)NCC(=O)N[C@@H](C)C(=O)N1CCC[C@H]1C(=O)N1CCC[C@H]1C(=O)N1CCC[C@H]1C(=O)N[C@@H](CO)C(N)=O)C(C)C)C(=O)O [compound 23] (H-[dH]GQGTFTSDK([γGlu-Palmitoyl])SKYLDERAAQDFVQWLLEGGPSSGAPPPS-NH2; N-terminus assumed)
EC50 (glucagon receptor; [1]): 0.015 nM | EC50 (GIP receptor; [1]): 0.043 nM | EC50 (GLP-1 receptor; [1]): 0.003 nM

CCCCCCCCCCCCCCCC(=O)N[C@@H](CCC(=O)NCCCC[C@H](NC(=O)[C@H](CC(=O)O)NC(=O)[C@H](CO)NC(=O)[C@@H](NC(=O)[C@H](Cc1ccccc1)NC(=O)[C@@H](NC(=O)CNC(=O)[C@H](CCC(N)=O)NC(=O)CNC(=O)[C@@H](Cc1ccc(O)cc1)NC(C)=O)[C@@H](C)O)[C@@H](C)O)C(=O)N[C@@H](CO)C(=O)N[C@@H](CCCCN)C(=O)N[C@@H](Cc1ccc(O)cc1)C(=O)N[C@@H](CC(C)C)C(=O)N[C@@H](CC(=O)O)C(=O)N[C@@H](CCC(=O)O)C(=O)N[C@@H](CCCNC(=N)N)C(=O)N[C@@H](C)C(=O)N[C@@H](C)C(=O)N[C@@H](CCC(N)=O)C(=O)N[C@@H](CC(=O)O)C(=O)N[C@@H](Cc1ccccc1)C(=O)N[C@H](C(=O)N[C@@H](CCC(N)=O)C(=O)N[C@@H](Cc1c[nH]c2ccccc12)C(=O)N[C@@H](CC(C)C)C(=O)N[C@@H](CC(C)C)C(=O)N[C@@H](CCC(=O)O)C(=O)NCC(=O)NCC(=O)N1CCC[C@H]1C(=O)N[C@@H](CO)C(=O)N[C@@H](CO)C(=O)NCC(=O)N[C@@H](C)C(=O)N1CCC[C@H]1C(=O)N1CCC[C@H]1C(=O)N1CCC[C@H]1C(=O)N[C@@H](CO)C(N)=O)C(C)C)C(=O)O [compound 14] (Ac-[dY]GQGTFTSDK([γGlu-Palmitoyl])SKYLDERAAQDFVQWLLEGGPSSGAPPPS-NH2)
EC50 (glucagon receptor; [1]): 0.005 nM | EC50 (GIP receptor; [1]): 0.005 nM | EC50 (GLP-1 receptor; [1]): 0.022 nM

CCCCCCCCCCCCCCCC(=O)N[C@@H](CCC(=O)NCCCC[C@H](NC(=O)[C@H](CC(=O)O)NC(=O)[C@H](CO)NC(=O)[C@@H](NC(=O)[C@H](Cc1ccccc1)NC(=O)[C@@H](NC(=O)CNC(=O)[C@H](CCC(N)=O)NC(=O)[C@H](C)NC(=O)[C@@H](Cc1c[nH]cn1)NC(C)=O)[C@@H](C)O)[C@@H](C)O)C(=O)N[C@@H](CO)C(=O)N[C@@H](CCCCN)C(=O)N[C@@H](Cc1ccc(O)cc1)C(=O)N[C@@H](CC(C)C)C(=O)N[C@@H](CC(=O)O)C(=O)N[C@@H](CCC(=O)O)C(=O)N[C@@H](CCCNC(=N)N)C(=O)N[C@@H](C)C(=O)N[C@@H](C)C(=O)N[C@@H](CCC(N)=O)C(=O)N[C@@H](CC(=O)O)C(=O)N[C@@H](Cc1ccccc1)C(=O)N[C@H](C(=O)N[C@@H](CCC(N)=O)C(=O)N[C@@H](Cc1c[nH]c2ccccc12)C(=O)N[C@@H](CC(C)C)C(=O)N[C@@H](CC(C)C)C(=O)N[C@@H](CCC(=O)O)C(=O)N[C@@H](C)C(=O)NCC(=O)N1CCC[C@H]1C(=O)N[C@@H](CO)C(=O)N[C@@H](CO)C(=O)NCC(=O)N[C@@H](C)C(=O)N1CCC[C@H]1C(=O)N1CCC[C@H]1C(=O)N1CCC[C@H]1C(=O)N[C@@H](CO)C(N)=O)C(C)C)C(=O)O [compound 151] (Ac-[dH]AQGTFTSDK([γGlu-Palmitoyl])SKYLDERAAQDFVQWLLEAGPSSGAPPPS-NH2)
EC50 (glucagon receptor; [2]): 0.003 nM | EC50 (GIP receptor; [2]): 0.014 nM | EC50 (GLP-1 receptor; [2]): 0.002 nM

CCCCCCCCCCCCCCCC(=O)N[C@@H](CCC(=O)NCCCC[C@H](NC(=O)[C@H](CC(=O)O)NC(=O)[C@H](CO)NC(=O)[C@@H](NC(=O)[C@H](Cc1ccccc1)NC(=O)[C@@H](NC(=O)CNC(=O)[C@H](CCC(N)=O)NC(=O)[C@H](C)NC(=O)[C@@H](Cc1ccccc1)NC(C)=O)[C@@H](C)O)[C@@H](C)O)C(=O)N[C@@H](CO)C(=O)N[C@@H](CCCCN)C(=O)N[C@@H](Cc1ccc(O)cc1)C(=O)N[C@@H](CC(C)C)C(=O)N[C@@H](CC(=O)O)C(=O)N[C@@H](CCC(=O)O)C(=O)N[C@@H](CCCNC(=N)N)C(=O)N[C@@H](C)C(=O)N[C@@H](C)C(=O)N[C@@H](CCC(N)=O)C(=O)N[C@@H](CC(=O)O)C(=O)N[C@@H](Cc1ccccc1)C(=O)N[C@H](C(=O)N[C@@H](CCC(N)=O)C(=O)N[C@@H](Cc1c[nH]c2ccccc12)C(=O)N[C@@H](CC(C)C)C(=O)N[C@@H](CC(C)C)C(=O)N[C@@H](CCC(=O)O)C(=O)NCC(=O)NCC(=O)N1CCC[C@H]1C(=O)N[C@@H](CO)C(=O)N[C@@H](CO)C(=O)NCC(=O)N[C@@H](C)C(=O)N1CCC[C@H]1C(=O)N1CCC[C@H]1C(=O)N1CCC[C@H]1C(=O)N[C@@H](CO)C(N)=O)C(C)C)C(=O)O [compound 150]
EC50 (glucagon receptor; [2]): 0.014 nM | EC50 (GIP receptor; [2]): 0.011 nM | EC50 (GLP-1 receptor; [2]): 0.002 nM

CCCCCCCCCCCCCCCC(=O)N[C@@H](CCC(=O)NCCCC[C@H](NC(=O)[C@H](CC(=O)O)NC(=O)[C@H](CO)NC(=O)[C@@H](NC(=O)[C@H](Cc1ccccc1)NC(=O)[C@@H](NC(=O)CNC(=O)[C@H](CCC(=O)O)NC(=O)[C@H](C)NC(=O)[C@@H](Cc1ccc(O)cc1)NC(C)=O)[C@@H](C)O)[C@@H](C)O)C(=O)N[C@@H](CO)C(=O)N[C@@H](CCCCN)C(=O)N[C@@H](Cc1ccc(O)cc1)C(=O)N[C@@H](CC(C)C)C(=O)N[C@@H](CC(=O)O)C(=O)N[C@@H](CCC(=O)O)C(=O)N[C@@H](CCCNC(=N)N)C(=O)N[C@@H](C)C(=O)N[C@@H](C)C(=O)N[C@@H](CCC(N)=O)C(=O)N[C@@H](CC(=O)O)C(=O)N[C@@H](Cc1ccccc1)C(=O)N[C@H](C(=O)N[C@@H](CCC(N)=O)C(=O)N[C@@H](Cc1c[nH]c2ccccc12)C(=O)N[C@@H](CC(C)C)C(=O)N[C@@H](CC(C)C)C(=O)N[C@@H](CCC(=O)O)C(=O)N[C@@H](C)C(=O)NCC(=O)N1CCC[C@H]1C(=O)N[C@@H](CO)C(=O)N[C@@H](CO)C(=O)NCC(=O)N[C@@H](C)C(=O)N1CCC[C@H]1C(=O)N1CCC[C@H]1C(=O)N1CCC[C@H]1C(=O)N[C@@H](CO)C(N)=O)C(C)C)C(=O)O [compound 144] (Ac-[dY]AEGTFTSDK([γGlu-Palmitoyl])SKYLDERAAQDFVQWLLEAGPSSGAPPPS-NH2)
EC50 (glucagon receptor; [2]): 1.3 nM | EC50 (GIP receptor; [2]): 0.003 nM | EC50 (GLP-1 receptor; [2]): 0.017 nM

Source: patent US9868772B2 (INDIANA UNIVERSITY RESEARCH AND TECHNOLOGY CORPORATION, priority 2012, dated 2018)
